Measured values published in patent US6638916B1, “Use of sulfated oligosaccharides as inhibitors of cardiovascular disease” (The Australian National University, priority 1997, dated 2003).
Marks after values point to notes of the source that are not given here.

How the values were obtained:
[1] = tested on: vascular intimal hyperplasia; experiment: Balloon dilation model of vascular intimal hyperplasia (carotid artery); assay type: in vivo, rat
From the text: In the second procedure, a traditional balloon dilation model, based essentially on the method described by Clowes et al.^8 was used. Thirteen male Wistar rats (16-20 weeks of age) were anaesthetised (avertin) and the left common carotid artery exteriorised via a ventral midline incision. A padded vascular clamp was applied to the most caudal end of the exteriorised artery. Following arteriotomy a 2 F Fogarty balloon catheter was inserted into the carotid artery, the vascular clamp removed and the catheter advanced 1-1.5 cm in a caudal direction. The balloon was inflated using a 0.12 cc of air and the catheter was withdrawn to the point of arterial insertion. The balloon was then deflated and this procedure was repeated twice more. On the third withdrawal the balloon was deflated, the catheter removed from the artery and simultaneously a padded vascular clamp applied immediately caudal to the arteriotomy but leaving room for the subsequent application of a ligature (5/0 silk). […]
In the second procedure employing the balloon dilation model, the degree of vascular intimal hyperplasia was calculated as a percentage of the total area of the vessel cross-section. Specifically, the percentage of hyperplasia was determined to be the area of the tunica intima divided by the cross-sectional area of the artery.

[2] = tested on: saponin-induced vascular hyperplasia; experiment: Saponin-induced vascular hyperplasia model (carotid artery endothelial denudation); assay type: in vivo, rat; conditions: for effect on saponin-induced smooth muscle cell hyperplasia (histology, in words): rat carotid artery 14 days after saponin denudation, 35 mg/kg/day days 1 to 14 by miniosmotic pump, 35 mg/kg/day
Protocol: In order to induce vascular hyperplasia two procedures were used. In the first procedure, male Fisher 344 rats (18→30 weeks of age) were anaesthetised and approximately a 1 cm length of one of the carotid arteries exteriorised by dissection. The 1 cm arterial segment was clamped at both ends with padded artery clamps. A small volume of saponin solution (0.5 mg/ml in PBS) was injected, via a 30 gauge needle, into the arterial segment, left for 2 min and then withdrawn by suction. The 1 cm arterial section was ligated (5/0 silk) on each side of the needle hole and the arterial clamps removed, the artery reinteriorised and the wound sutured. On the following day animals were divided into control and treatment groups. The treatment group received the sulfated oligosaccharide, sulfated mannopentaose phosphate (PI-88) at a dose of 35 mg/kg/day for the next 14 days delivered via subcutaneously implanted miniosmotic pumps (Alzet 2ML2). Control animals were given the miniosmotic pumps containing saline. After 2 weeks the animals were anaesthetised (pentobarbitone), perfused with 10% buffered formalin for 20 minutes, euthanised (Pentobarbitone) and the denuded arterial segments were removed and processed for histological examination. The degree of intimal hyperplasia was determined using digital image analysis.
The saponin-induced vascular hyperplasia model used in this study is a new procedure which has several important features which should be highlighted. First, brief exposure to the detergent saponin is used to denude the arterial wall of endothelial cells. Such a procedure is similar to the endothelial denudation resulting from balloon angioplasty. Second, massive vascular smooth muscle hyperplasia is observed in the saponin-treated carotid artery 14 days after saponin exposure (FIG. 1) when compared with the carotid artery from an untreated control animal (FIG. 2). In fact, almost complete occlusion of the blood vessel is observed in the saponin-treated vessel (FIG. 1). Third, based on control experiments, the saponin-induced vascular hyperplasia model represents an excellent system for screening of drugs which inhibit vascular hyperplasia, a process which occurs in atherosclerotic plaques and in angioplasty-associated restenosis.

sulfated mannopentaose phosphate [PI-88]
effect on vascular intimal hyperplasia (in words) ([1]; balloon dilation model, 35 mg/kg/day via miniosmotic pumps): statistically significant (P=0.0008) reduction in vascular intimal hyperplasia
Percentage of neointima ([1]; male Wistar rats, balloon catheter dilation of left common carotid artery, 35 mg/kg/day for two weeks via subcutaneous miniosmotic pump, area of tunica intima divided by cross-sectional area of artery, saline control 57.66): 36.02^a %
Arterial Wall Thickness ([2]; male Fisher 344 rats, saponin denudation of carotid artery, 35 mg/kg/day for 14 days via subcutaneous miniosmotic pump, mean ± SEM, P = 0.08 vs control): 266.7 ± 27.7^b μm
Arterial Wall Thickness % Control ([2]; male Fisher 344 rats, saponin denudation, 35 mg/kg/day for 14 days via miniosmotic pump, saline control = 100, mean ± SEM, P = 0.08): 66.4 ± 6.9^b %
effect on saponin-induced smooth muscle cell hyperplasia (histology, in words) [2]: reduction in the saponin-induced vascular hyperplasia
effect on saponin-induced smooth muscle cell hyperplasia (histology, in words) ([2]; listed as sulfated mannopentaose phosphate): substantial reduction in smooth muscle cell hyperplasia
inhibition of vascular hyperplasia compared with untreated control animals ([2]; saponin model, 35 mg/kg/day via miniosmotic pumps, histological examination of carotid arteries, P=0.08): 34%
